The source of these data is patent EP3154958B1, “PHOSPHATIDYLINOSITOL 3-KINASE INHIBITORS” (Gilead Sciences, Inc., priority 2014, dated 2015).

Where two headings read alike, the source gives them in different places.

Format in all cases: biochemical
In experiment [1] the target is T1, PI3Kδ (Homo sapiens, UniProt O00329).
T1 construct: made in house
Kind of experiment: TR-FRET enzymatic activity assay, PI3Kδ. How it is done:
(§1) The compounds of formula (I) were characterized for their enzymatic activity against the PI3K isoforms. The activities were measured using a time-resolved fluorescence resonance energy transfer (TR-FRET) assay.

The target in experiment [2] is T2, PI3Kβ (Homo sapiens, UniProt P42338).
T2 construct: made in house
T2 sequence (P42338 whole entry): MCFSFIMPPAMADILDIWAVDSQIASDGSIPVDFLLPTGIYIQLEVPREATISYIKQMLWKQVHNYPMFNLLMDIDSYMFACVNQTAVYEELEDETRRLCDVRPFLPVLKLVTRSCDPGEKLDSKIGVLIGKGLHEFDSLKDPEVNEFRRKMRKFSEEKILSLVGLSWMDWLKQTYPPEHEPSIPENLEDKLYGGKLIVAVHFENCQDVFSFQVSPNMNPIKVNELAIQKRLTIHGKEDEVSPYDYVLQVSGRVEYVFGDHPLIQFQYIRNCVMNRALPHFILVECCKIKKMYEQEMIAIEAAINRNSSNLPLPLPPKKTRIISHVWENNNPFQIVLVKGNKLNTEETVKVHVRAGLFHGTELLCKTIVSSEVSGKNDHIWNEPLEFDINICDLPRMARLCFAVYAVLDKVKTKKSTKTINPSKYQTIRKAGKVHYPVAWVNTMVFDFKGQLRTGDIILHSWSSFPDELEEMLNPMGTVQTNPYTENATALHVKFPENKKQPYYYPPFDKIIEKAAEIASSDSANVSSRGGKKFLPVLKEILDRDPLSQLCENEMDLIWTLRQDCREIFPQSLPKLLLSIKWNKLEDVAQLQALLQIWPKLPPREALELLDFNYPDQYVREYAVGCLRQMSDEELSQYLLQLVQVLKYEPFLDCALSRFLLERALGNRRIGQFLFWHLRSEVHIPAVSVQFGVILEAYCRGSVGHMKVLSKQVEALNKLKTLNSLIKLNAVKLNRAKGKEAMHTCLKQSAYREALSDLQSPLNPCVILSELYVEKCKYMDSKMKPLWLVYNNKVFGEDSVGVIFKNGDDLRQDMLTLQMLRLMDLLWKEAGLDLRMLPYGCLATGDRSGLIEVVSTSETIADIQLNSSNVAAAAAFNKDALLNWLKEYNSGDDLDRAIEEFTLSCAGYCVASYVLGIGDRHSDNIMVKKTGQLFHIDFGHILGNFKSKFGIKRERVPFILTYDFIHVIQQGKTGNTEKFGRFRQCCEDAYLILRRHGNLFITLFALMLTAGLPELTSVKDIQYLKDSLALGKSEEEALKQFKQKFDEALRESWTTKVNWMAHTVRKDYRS
T2 sequence (P27986 whole entry partner): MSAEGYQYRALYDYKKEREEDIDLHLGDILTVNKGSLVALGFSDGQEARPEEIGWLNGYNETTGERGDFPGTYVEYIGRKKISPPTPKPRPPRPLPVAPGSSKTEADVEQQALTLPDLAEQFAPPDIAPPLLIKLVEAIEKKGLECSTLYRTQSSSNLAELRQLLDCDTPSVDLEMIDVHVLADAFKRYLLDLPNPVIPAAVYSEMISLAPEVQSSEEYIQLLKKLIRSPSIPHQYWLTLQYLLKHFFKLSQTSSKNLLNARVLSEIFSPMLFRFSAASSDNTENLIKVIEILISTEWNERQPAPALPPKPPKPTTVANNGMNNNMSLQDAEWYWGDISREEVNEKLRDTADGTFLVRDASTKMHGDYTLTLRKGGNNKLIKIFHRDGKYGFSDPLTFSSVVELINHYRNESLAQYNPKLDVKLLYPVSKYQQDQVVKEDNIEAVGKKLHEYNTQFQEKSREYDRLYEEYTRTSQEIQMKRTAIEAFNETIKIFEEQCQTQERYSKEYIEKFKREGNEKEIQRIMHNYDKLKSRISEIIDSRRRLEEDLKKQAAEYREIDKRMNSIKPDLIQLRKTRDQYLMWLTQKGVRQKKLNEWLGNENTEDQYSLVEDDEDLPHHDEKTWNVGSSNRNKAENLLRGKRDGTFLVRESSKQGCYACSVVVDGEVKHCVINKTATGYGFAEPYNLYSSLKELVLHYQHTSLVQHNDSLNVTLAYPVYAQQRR
The experiment in a line: TR-FRET enzymatic activity assay, PI3Kβ. How it is done: as §1
In general terms: In TR-FRET formats the signal depends on donor and acceptor labels being close together.

In experiment [3] the target is T3, PI3Kγ (Homo sapiens, UniProt P48736).
T3 construct: made in house
T3 sequence (P48736 whole entry): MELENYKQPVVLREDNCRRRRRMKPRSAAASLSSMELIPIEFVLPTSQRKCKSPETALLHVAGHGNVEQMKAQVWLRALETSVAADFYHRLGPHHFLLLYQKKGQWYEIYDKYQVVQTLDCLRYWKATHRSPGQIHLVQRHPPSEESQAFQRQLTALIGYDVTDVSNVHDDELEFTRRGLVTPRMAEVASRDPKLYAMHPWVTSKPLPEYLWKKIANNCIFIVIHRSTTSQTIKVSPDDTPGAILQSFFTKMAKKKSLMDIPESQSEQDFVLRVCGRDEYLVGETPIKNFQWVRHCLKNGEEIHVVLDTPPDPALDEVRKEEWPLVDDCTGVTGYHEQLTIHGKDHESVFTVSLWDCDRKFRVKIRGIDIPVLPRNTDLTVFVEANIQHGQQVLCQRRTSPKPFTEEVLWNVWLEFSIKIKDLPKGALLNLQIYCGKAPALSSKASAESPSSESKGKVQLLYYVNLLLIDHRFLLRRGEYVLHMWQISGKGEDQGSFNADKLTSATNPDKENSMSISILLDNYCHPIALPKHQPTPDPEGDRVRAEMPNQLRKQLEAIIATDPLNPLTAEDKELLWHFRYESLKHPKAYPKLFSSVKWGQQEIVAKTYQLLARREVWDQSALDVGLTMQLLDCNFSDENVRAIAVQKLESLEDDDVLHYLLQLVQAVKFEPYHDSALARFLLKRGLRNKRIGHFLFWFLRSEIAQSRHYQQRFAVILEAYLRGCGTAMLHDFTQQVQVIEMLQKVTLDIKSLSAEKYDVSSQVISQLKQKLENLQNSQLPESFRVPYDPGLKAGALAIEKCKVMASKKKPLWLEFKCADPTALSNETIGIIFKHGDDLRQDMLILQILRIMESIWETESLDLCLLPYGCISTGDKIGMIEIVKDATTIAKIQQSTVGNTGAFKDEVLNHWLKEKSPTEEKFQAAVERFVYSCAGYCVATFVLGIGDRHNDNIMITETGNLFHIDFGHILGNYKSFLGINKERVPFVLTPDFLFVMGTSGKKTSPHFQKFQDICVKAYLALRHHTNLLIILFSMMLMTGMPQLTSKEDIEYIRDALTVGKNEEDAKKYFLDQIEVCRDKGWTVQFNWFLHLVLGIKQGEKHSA
T3 sequence (Q8WYR1 whole entry partner): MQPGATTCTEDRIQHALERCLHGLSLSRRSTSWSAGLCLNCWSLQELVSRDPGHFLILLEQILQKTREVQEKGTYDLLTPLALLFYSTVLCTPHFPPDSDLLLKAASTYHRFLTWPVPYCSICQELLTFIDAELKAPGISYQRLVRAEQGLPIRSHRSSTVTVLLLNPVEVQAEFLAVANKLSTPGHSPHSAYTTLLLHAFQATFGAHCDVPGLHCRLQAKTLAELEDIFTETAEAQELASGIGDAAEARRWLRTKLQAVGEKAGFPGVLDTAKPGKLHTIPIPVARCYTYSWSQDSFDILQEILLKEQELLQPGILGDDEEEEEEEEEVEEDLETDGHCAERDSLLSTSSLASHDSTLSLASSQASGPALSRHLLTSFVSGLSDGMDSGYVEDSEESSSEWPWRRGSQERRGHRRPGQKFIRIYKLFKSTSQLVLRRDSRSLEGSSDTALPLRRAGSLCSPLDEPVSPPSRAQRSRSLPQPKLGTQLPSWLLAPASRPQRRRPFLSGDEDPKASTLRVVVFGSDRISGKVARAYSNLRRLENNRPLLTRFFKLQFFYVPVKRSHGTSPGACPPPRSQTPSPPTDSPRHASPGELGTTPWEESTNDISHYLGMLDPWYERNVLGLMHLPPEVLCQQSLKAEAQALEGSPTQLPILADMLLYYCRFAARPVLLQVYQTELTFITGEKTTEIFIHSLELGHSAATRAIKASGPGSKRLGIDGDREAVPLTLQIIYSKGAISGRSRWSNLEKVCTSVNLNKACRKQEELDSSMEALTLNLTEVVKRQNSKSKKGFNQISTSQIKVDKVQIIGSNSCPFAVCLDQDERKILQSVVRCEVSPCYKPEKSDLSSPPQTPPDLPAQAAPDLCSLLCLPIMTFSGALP
Kind of experiment: TR-FRET enzymatic activity assay, PI3Kγ. How it is done: as §1

Where [4] appears, read: recombinant heterodimeric PI3Kδ 25-50 pM, 2× Km ATP, 30 minutes at 25°C.
Where [5] appears, read: recombinant heterodimeric PI3Kβ 25-50 pM, 2× Km ATP, 30 minutes at 25°C.
The mark [6] stands for this setting: recombinant heterodimeric PI3Kγ 2 nM, 2× Km ATP, 30 minutes at 25°C.

T1 sequence (O00329 whole entry): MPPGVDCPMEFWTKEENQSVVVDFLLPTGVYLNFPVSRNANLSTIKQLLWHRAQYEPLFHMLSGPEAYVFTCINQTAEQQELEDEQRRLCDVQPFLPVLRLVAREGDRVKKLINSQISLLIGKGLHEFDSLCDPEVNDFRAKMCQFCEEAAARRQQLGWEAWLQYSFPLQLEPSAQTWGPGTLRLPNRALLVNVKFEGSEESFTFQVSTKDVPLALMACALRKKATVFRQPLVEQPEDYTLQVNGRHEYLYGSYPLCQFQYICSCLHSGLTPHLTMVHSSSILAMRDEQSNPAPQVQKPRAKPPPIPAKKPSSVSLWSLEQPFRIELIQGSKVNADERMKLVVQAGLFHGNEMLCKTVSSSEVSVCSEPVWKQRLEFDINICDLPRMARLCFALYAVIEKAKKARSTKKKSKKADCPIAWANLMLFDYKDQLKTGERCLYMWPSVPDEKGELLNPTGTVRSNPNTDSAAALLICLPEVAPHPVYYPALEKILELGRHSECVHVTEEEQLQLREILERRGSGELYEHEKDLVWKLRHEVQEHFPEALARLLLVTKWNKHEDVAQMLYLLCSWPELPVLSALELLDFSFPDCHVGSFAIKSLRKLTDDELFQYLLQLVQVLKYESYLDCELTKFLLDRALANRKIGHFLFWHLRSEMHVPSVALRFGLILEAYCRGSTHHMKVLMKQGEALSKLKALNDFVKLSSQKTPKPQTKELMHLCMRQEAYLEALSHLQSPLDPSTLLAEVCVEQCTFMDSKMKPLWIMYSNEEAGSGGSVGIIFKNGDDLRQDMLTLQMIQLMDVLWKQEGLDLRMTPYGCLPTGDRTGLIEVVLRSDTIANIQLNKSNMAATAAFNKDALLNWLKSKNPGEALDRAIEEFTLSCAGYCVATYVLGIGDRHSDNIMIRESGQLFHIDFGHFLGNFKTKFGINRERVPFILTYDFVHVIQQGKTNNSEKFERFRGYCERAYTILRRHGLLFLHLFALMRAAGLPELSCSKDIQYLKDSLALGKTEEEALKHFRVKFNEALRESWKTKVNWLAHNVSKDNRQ
T1 sequence (P27986 whole entry partner): as the sequence (P27986 whole entry partner) above

As a reminder, the IC50 is the midpoint of a concentration-inhibition curve. With `C[C@H](Nc1nc(N)nc(N)c1C#N)c1nc2c(F)ccc(F)c2c(=O)n1N1CCNCC1` [Compound 39, (S)-2,4-diamino-6-((1-(5,8-difluoro-4-oxo-3-(piperazin-1-yl)-3,4-dihydroquinazolin-2-yl)ethyl)amino)pyrimidine-5-carbonitrile], the IC50 in experiment [1] (setting [4]) is 0.003 µM; in experiment [2] (setting [5]), 0.004 µM; in experiment [3] (setting [6]) it was 5.4 µM.

`C[C@H](Nc1ncnc(N)c1C#N)c1nc2cccc(Cl)c2c(=O)n1C1CCN(C2CCN(C)CC2)CC1` [Compound 134, (S)-4-amino-6-((1-(5-chloro-3-(1'-methyl-[1,4'-bipiperidin]-4-yl)-4-oxo-3,4-dihydroquinazolin-2-yl)ethyl)amino)pyrimidine-5-carbonitrile]: the IC50 in experiment [1] (setting [4]) was 0.035 µM; in experiment [2] (setting [5]) it was 2.2 µM; in experiment [3] (setting [6]), greater than 10 µM.

With `C[C@H](Nc1nc(N)nc(N)c1C#N)c1nc2cccc(Cl)c2c(=O)n1N1CCN(CCOC(C)(C)C)CC1` [Compound 96, (S)-2,4-diamino-6-((1-(3-(4-(2-(tert-butoxy)ethyl)piperazin-1-yl)-5-chloro-4-oxo-3,4-dihydroquinazolin-2-yl)ethyl)amino)pyrimidine-5-carbonitrile], the IC50 in experiment [1] (setting [4]) is 0.015 µM; in experiment [2] (setting [5]), 0.01 µM; in experiment [3] (setting [6]), 1 µM.

For the compound `C[C@H](Nc1ncnc(N)c1C#N)c1nc2cccc(Cl)c2c(=O)n1N1CCNC2(CC2)C1` [Compound 63, (S)-4-amino-6-((1-(5-chloro-4-oxo-3-(4,7-diazaspiro[2.5]octan-7-yl)-3,4-dihydroquinazolin-2-yl)ethyl)amino)pyrimidine-5-carbonitrile], the values for the IC50 in experiment [1] (setting [4]), in experiment [2] (setting [5]) and in experiment [3] (setting [6]) were 0.002 µM, 0.005 µM and greater than 10 µM, respectively.

Consider `O=c1c2c(F)ccc(F)c2nc([C@@H](Nc2ncnn3ccnc23)C2CC2)n1N1CCNCC1` [Compound 41, (S)-2-(cyclopropyl(imidazo[2,1-f][1,2,4]triazin-4-ylamino)methyl)-5,8-difluoro-3 - (piperazin-1-yl)quinazolin-4(3H)-one], for which the IC50 was 0.024 µM in experiment [1] (setting [4]), 0.21 µM in experiment [2] (setting [5]) and greater than 10 µM in experiment [3] (setting [6]).

In the case of `N#Cc1c(N)nc(N)nc1N[C@H](c1nc2cccc(Cl)c2c(=O)n1C1[C@H]2CNC[C@@H]12)C1CC1` (stereo in doubt) [Compound 15, 4-(((1S)-(3-((1R,5S)-3-azabicyclo[3.1.0]hexan-6-yl)-5-chloro-4-oxo-3,4-dihydroquinazolin-2-yl)(cyclopropyl)methyl)amino)-2,6-diaminopyrimidine-5-carbonitrile], the concentration for half-maximal inhibition (IC50) worked out at 0.0006 µM in experiment [1], 0.002 µM in experiment [2] and 0.65 µM in experiment [3].

On to `O=c1c2c(Cl)cccc2nc([C@@H]2CCCN2c2ncnn3ccnc23)n1N1CCNCC1` [Compound 133, (S)-5-chloro-2-(1-(imidazo[2,1-f][1,2,4]triazin-4-yl)pyrrolidin-2-yl)-3-(piperazin-1-yl)quinazolin-4(3H)-one], for which the IC50 in experiment [1] (setting [4]) is 0.075 µM; in experiment [2] (setting [5]) it was 0.9 µM; in experiment [3] (setting [6]), greater than 10 µM.

As for `C[C@H](Nc1nc(N)nc(N)c1C#N)c1nc2cccc(Cl)c2c(=O)n1N1CCN(CC(C)(C)C)CC1` [Compound 98, (S)-2,4-diamino-6-((1-(5-chloro-3-(4-neopentylpiperazin-1-yl)-4-oxo-3,4-dihydroquinazolin-2-yl)ethyl)amino)pyrimidine-5-carbonitrile], the results for the IC50 in experiment [1] (setting [4]), in experiment [2] (setting [5]) and in experiment [3] (setting [6]) were 0.005 µM, 0.004 µM and 1.2 µM, respectively.

In the case of `C[C@H](Nc1nc(N)nc(N)c1C#N)c1nc2cccc(Cl)c2c(=O)n1N1CCN(C)CC1` [Compound 125, (S)-2,4-diamino-6-((1-(5-chloro-3-(4-methylpiperazin-1-yl)-4-oxo-3,4-dihydroquinazolin-2-yl)ethyl)amino)pyrimidine-5-carbonitrile], the concentration for half-maximal inhibition (IC50) was determined as 0.006 µM in experiment [1] (setting [4]), 0.005 µM in experiment [2] (setting [5]) and 0.35 µM in experiment [3] (setting [6]).

On to `CC[C@H](Nc1nc(N)nc(N)c1C#N)c1nc2cccc(Cl)c2c(=O)n1N1CCN(Cc2ccc(OC)cc2)CC1` [Compound 92, (S)-2,4-diamino-6-((1-(5-chloro-3-(4-(4-methoxybenzyl)piperazin-1-yl)-4-oxo-3,4-dihydroquinazolin-2-yl)propyl)amino)pyrimidine-5-carbonitrile], for which the IC50 in experiment [1] (setting [4]) is 0.027 µM; in experiment [2] (setting [5]), 0.041 µM; in experiment [3] (setting [6]), 1.4 µM.

Consider `C[C@H](Nc1ncnc2scnc12)c1nc2c(F)ccc(Cl)c2c(=O)n1N1CCNCC1` [Compound 50, (S)-5-chloro-8-fluoro-3-(piperazin-1-yl)-2-(1-(thiazolo[5,4-d]pyrimidin-7-ylamino)ethyl)quinazolin-4(3H)-one], for which the IC50 in experiment [1] (setting [4]) is 0.002 µM; in experiment [2] (setting [5]), 0.015 µM; in experiment [3] (setting [6]), greater than 10 µM.

For `CC(C)C[C@H](Nc1ncnc(N)c1C#N)c1nc2cccc(Cl)c2c(=O)n1N1CCNCC1` [Compound 74, (S)-4-amino-6-((1-(5-chloro-4-oxo-3-(piperazin-1-yl)-3,4-dihydroquinazolin-2-yl)-3-methylbutyl)amino)pyrimidine-5-carbonitrile], the IC50 was 0.032 µM in experiment [1] (setting [4]), 0.57 µM in experiment [2] (setting [5]) and greater than 10 µM in experiment [3] (setting [6]).

For the compound `CC[C@H](Nc1nc(N)nc(N)c1C#N)c1nc2cccc(Cl)c2c(=O)n1N1CCNCC1` [Compound 68, (S)-2,4-diamino-6-((1-(5-chloro-4-oxo-3-(piperazin-1-yl)-3,4-dihydroquinazolin-2-yl)propyl)amino)pyrimidine-5-carbonitrile], the 50% inhibitory concentration (IC50) is 0.003 µM in experiment [1] (setting [4]), 0.001 µM in experiment [2] (setting [5]) and 2.1 µM in experiment [3] (setting [6]).

Consider `C[C@H](Nc1ncnc2ccoc12)c1nc2cccc(Cl)c2c(=O)n1N1CCNCC1` [Compound 34, (S)-5-chloro-2-(1-(furo[3,2-d]pyrimidin-4-ylamino)ethyl)-3-(piperazin-1-yl)quinazolin-4(3H)-one], for which the results for the IC50 in experiment [1] (setting [4]), in experiment [2] (setting [5]) and in experiment [3] (setting [6]) were 0.01 µM, 0.083 µM and greater than 10 µM, respectively.

As to `C[C@H](Nc1nc(N)nc(N)c1C#N)c1nc2cccc(Cl)c2c(=O)n1C1[C@H]2CNC[C@@H]12` (stereo in doubt) [Compound 19, 4-(((1S)-1-(3-((1R,5S)-3-azabicyclo[3.1.0]hexan-6-yl)-5-chloro-4-oxo-3,4-dihydroquinazolin-2-yl)ethyl)amino)-2,6-diaminopyrimidine-5-carbonitrile], the IC50 was found to be 0.001 µM in experiment [1], 0.003 µM in experiment [2] and 1.2 µM in experiment [3].

As to `Cc1nc(N)nc(N[C@@H](C)c2nc3c(F)ccc(Cl)c3c(=O)n2N2CCN(Cc3ccccc3)CC2)c1C#N` [Compound 118, (S)-2-amino-4-((1-(3-(4-benzylpiperazin-1-yl)-5-chloro-8-fluoro-4-oxo-3,4-dihydroquinazolin-2-yl)ethyl)amino)-6-methylpyrimidine-5-carbonitrile], the concentration for half-maximal inhibition (IC50) in experiment [1] (setting [4]) came out at 0.017 µM; in experiment [2] (setting [5]) it was 0.014 µM; in experiment [3] (setting [6]), 0.65 µM.

For `C[C@H](Nc1nc(N)nc(N)c1Cl)c1nc2cccc(Cl)c2c(=O)n1[C@H]1CCCNCC1` [Compound 12, 3-((S)-azepan-4-yl)-5-chloro-2-((S)-1-((2,6-diamino-5-chloropyrimidin-4-yl)amino)ethyl)quinazolin-4(3H)-one], the IC50 in experiment [1] (setting [4]) was 0.056 µM; in experiment [2] (setting [5]), 0.66 µM; in experiment [3] (setting [6]), greater than 10 µM.

With `C[C@H](Nc1ncnc2scnc12)c1nc2cccc(Cl)c2c(=O)n1N1CCN(CC(F)F)CC1` [Compound 115, (S)-5-chloro-3-(4-(2,2-difluoroethyl)piperazin-1-yl)-2-(1-(thiazolo[5,4-d]pyrimidin-7-ylamino)ethyl)quinazolin-4(3H)-one], the IC50 amounted to 0.037 µM in experiment [1] (setting [4]), 1.8 µM in experiment [2] (setting [5]) and 5.3 µM in experiment [3] (setting [6]).

On to `CC[C@H](Nc1ncnc2scnc12)c1nc2cccc(Cl)c2c(=O)n1N1CCNCC1` [Compound 80, (S)-5-chloro-3-(piperazin-1-yl)-2-(1-(thiazolo[5,4-d]pyrimidin-7-ylamino)propyl)quinazolin-4(3H)-one], for which the half-maximal inhibitory concentration (IC50) is 0.004 µM in experiment [1] (setting [4]), 0.025 µM in experiment [2] (setting [5]) and greater than 10 µM in experiment [3] (setting [6]).

Turning to `C[C@H](Nc1nc(N)nc(N)c1C#N)c1nc2cccc(Cl)c2c(=O)n1N1CCC(N)CC1` [Compound 129, (S)-2,4-diamino-6-((1-(3-(4-aminopiperidin-1-yl)-5-chloro-4-oxo-3,4-dihydroquinazolin-2-yl)ethyl)amino)pyrimidine-5-carbonitrile], the half-maximal inhibitory concentration (IC50) in experiment [1] (setting [4]) was determined as 0.004 µM; in experiment [2] (setting [5]), 0.12 µM; in experiment [3] (setting [6]), 5 µM.

In the case of `C[C@H](Nc1nc(N)nc(N)c1C#N)c1nc2cccc(Cl)c2c(=O)n1C1CCN(CC(F)F)CC1` [Compound 99, (S)-2,4-diamino-6-((1-(5-chloro-3-(1-(2,2-difluoroethyl)piperidin-4-yl)-4-oxo-3,4-dihydroquinazolin-2-yl)ethyl)amino)pyrimidine-5-carbonitrile], the IC50 in experiment [1] (setting [4]) came out at 0.014 µM; in experiment [2] (setting [5]), 0.72 µM; in experiment [3] (setting [6]) it was 1.6 µM.

Consider `C[C@H](Nc1ncnc(N)c1C#Cc1ccc(F)cn1)c1nc2cccc(Cl)c2c(=O)n1C1CNC1` [Compound 132, (S)-2-(1-((6-amino-5-((5-fluoropyridin-2-yl)ethynyl)pyrimidin-4-yl)amino)ethyl)-3-(azetidin-3-yl)-5-chloroquinazolin-4(3H)-one], for which the IC50 in experiment [1] (setting [4]) was 0.25 µM; in experiment [2] (setting [5]) it was 1 µM; in experiment [3] (setting [6]), greater than 10 µM.

In the case of `C[C@H](Nc1nc(N)nc(Cl)c1C#N)c1nc2cccc(Cl)c2c(=O)n1N1CCN(CC(F)F)CC1` [Compound 113, (S)-2-amino-4-chloro-6-((1-(5-chloro-3-(4-(2,2-difluoroethyl)piperazin-1-yl)-4-oxo-3,4-dihydroquinazolin-2-yl)ethyl)amino)pyrimidine-5-carbonitrile], the figures for the concentration for half-maximal inhibition (IC50) in experiment [1] (setting [4]), in experiment [2] (setting [5]) and in experiment [3] (setting [6]) were 0.042 µM, 0.6 µM and 1.3 µM, respectively.
